MIC data for six compounds are collected here from ChEMBL document CHEMBL2311450, “Synthesis and antibacterial evaluation of novel 11,4″-disubstituted azithromycin analogs with greatly improved activity against erythromycin-resistant bacteria” (2013).

For assay [1], the system named is Staphylococcus aureus. The experiment in a line: Antibacterial activity against penicillin-resistant Staphylococcus aureus clinical isolate by broth microdilution method. It counts as functional. For orientation: Dilution methods test growth across graded concentrations, often in twofold steps.
The subject of assay [2] is Streptococcus pneumoniae. Put plainly: Antibacterial activity against erythromycin-resistant Streptococcus pneumoniae A22072 expressing mef gene by broth microdilution method. It counts as functional.
The test system of assay [3] is Streptococcus pyogenes. Put plainly: Antibacterial activity against erythromycin-susceptible Streptococcus pyogenes by broth microdilution method. It counts as functional.
The test system of assay [4] is Streptococcus pyogenes. The experiment in a line: Antibacterial activity against erythromycin-resistant Streptococcus pyogenes RE clinical isolate by broth microdilution method. In kind it is functional.
The subject of assay [5] is Streptococcus pneumoniae. The experiment in a line: Antibacterial activity against erythromycin-susceptible Streptococcus pneumoniae ATCC 49619 by broth microdilution method. In kind it is functional.
Assay [6] deals with Salmonella typhimurium. Put plainly: Antibacterial activity against Salmonella typhimurium TA102 by broth microdilution method. The conditions noted are these: Salmonella enterica. In kind it is functional, Salmonella enterica subsp. enterica serovar Typhimurium.
Assay [7] has as its system Salmonella typhimurium. Put plainly: Antibacterial activity against Salmonella typhimurium TA98 by broth microdilution method. It counts as functional, Salmonella enterica subsp. enterica serovar Typhimurium. The note with it: Salmonella enterica.
The test system of assay [8] is Staphylococcus aureus. Put plainly: Antibacterial activity against methicillin-susceptible Staphylococcus aureus ATCC 29213 by broth microdilution method. It counts as functional.
The subject of assay [9] is Staphylococcus aureus. Put plainly: Antibacterial activity against erythromycin-susceptible Staphylococcus aureus ATCC 25923 by broth microdilution method. It counts as functional.
Assay [10] relates to Streptococcus pneumoniae. Put plainly: Antibacterial activity against erythromycin-resistant Streptococcus pneumoniae B1 expressing erm gene by broth microdilution method. It counts as functional.
Assay [11] has as its system Streptococcus pneumoniae. Put plainly: Antibacterial activity against erythromycin-resistant Streptococcus pneumoniae AB11 expressing erm and mef genes by broth microdilution method. It counts as functional.

The term MIC denotes the least concentration at which growth counts as inhibited. Read a high MIC as a less susceptible organism.

≈ marks a conversion by molar mass, not a printed value.

On to `CC[C@H]1OC(=O)[C@H](C)[C@@H](O[C@H]2C[C@@](C)(OC)[C@@H](O)[C@H](C)O2)[C@H](C)[C@@H](O[C@@H]2O[C@H](C)C[C@H](N(C)C)[C@H]2O)[C@](C)(O)C[C@@H](C)C(=O)[C@H](C)[C@@H](O)[C@]1(C)O` [ERYTHROMYCIN], for which the MIC with Staphylococcus aureus [1] was 0.25 µg/mL (≈ 0.341 µM); in the assay with Streptococcus pneumoniae [2], 8 µg/mL (≈ 10.9 µM); against Streptococcus pyogenes [3], 0.03 µg/mL (≈ 0.0409 µM); against Streptococcus pyogenes [4] it was 4 µg/mL (≈ 5.45 µM); in the assay on Streptococcus pneumoniae [5] it was 0.03 µg/mL (≈ 0.0409 µM); in the assay with Salmonella typhimurium [6], 2 µg/mL (≈ 2.73 µM). The MIC was determined as 0.5 µg/mL (≈ 0.681 µM) against Salmonella typhimurium [7]; 0.12 µg/mL (≈ 0.164 µM) with Staphylococcus aureus [8]; 0.06 µg/mL (≈ 0.0818 µM) in the assay on Staphylococcus aureus [9]; 128 µg/mL (≈ 174 µM) in the assay on Streptococcus pneumoniae [10]; 256 µg/mL (≈ 349 µM) in the assay with Streptococcus pneumoniae [11].
As for `CC[C@H]1OC(=O)[C@H](C)[C@@H](O[C@H]2C[C@@](C)(OC)[C@@H](OC(=O)NCCCCNC(=O)c3ccc(OC)c(OC)c3)[C@H](C)O2)[C@H](C)[C@@H](O[C@@H]2O[C@H](C)C[C@H](N(C)C)[C@H]2O)[C@](C)(O)C[C@@H](C)CN(C)[C@H](C)[C@@H](OC(=O)NCCc2ccccc2)[C@]1(C)O`, the MIC turned out to be 16 µg/mL (≈ 13.6 µM) with Staphylococcus aureus [1]; 2 µg/mL (≈ 1.7 µM) with Streptococcus pneumoniae [2]; 8 µg/mL (≈ 6.81 µM) in the assay with Streptococcus pyogenes [3]; 64 µg/mL (≈ 54.5 µM) in the assay on Streptococcus pyogenes [4]; 0.12 µg/mL (≈ 0.102 µM) with Streptococcus pneumoniae [5]; 4 µg/mL (≈ 3.41 µM) in the assay with Salmonella typhimurium [6]. Also, the MIC came to 4 µg/mL (≈ 3.41 µM) against Salmonella typhimurium [7]; 32 µg/mL (≈ 27.2 µM) against Staphylococcus aureus [8]; 0.5 µg/mL (≈ 0.426 µM) in the assay with Staphylococcus aureus [9]; 8 µg/mL (≈ 6.81 µM) against Streptococcus pneumoniae [10]; 16 µg/mL (≈ 13.6 µM) with Streptococcus pneumoniae [11].
For `CC[C@H]1OC(=O)[C@H](C)[C@@H](O[C@H]2C[C@@](C)(OC)[C@@H](O)[C@H](C)O2)[C@H](C)[C@@H](O[C@@H]2O[C@H](C)C[C@H](N(C)C)[C@H]2O)[C@](C)(O)C[C@@H](C)CN(C)[C@H](C)[C@@H](O)[C@]1(C)O` [AZITHROMYCIN], the MIC worked out at 0.5 µg/mL (≈ 0.668 µM) in the assay on Staphylococcus aureus [1]; 4 µg/mL (≈ 5.34 µM) against Streptococcus pneumoniae [2]; 0.03 µg/mL (≈ 0.0401 µM) against Streptococcus pyogenes [3]; 8 µg/mL (≈ 10.7 µM) with Streptococcus pyogenes [4]; 0.03 µg/mL (≈ 0.0401 µM) in the assay with Streptococcus pneumoniae [5]; 0.25 µg/mL (≈ 0.334 µM) against Salmonella typhimurium [6]. In addition, the MIC against Salmonella typhimurium [7] was found to be 0.5 µg/mL (≈ 0.668 µM); against Staphylococcus aureus [8], 2 µg/mL (≈ 2.67 µM); against Staphylococcus aureus [9], 0.25 µg/mL (≈ 0.334 µM); in the assay on Streptococcus pneumoniae [10] it was 128 µg/mL (≈ 171 µM); in the assay on Streptococcus pneumoniae [11], 256 µg/mL (≈ 342 µM).
Regarding `CC[C@H]1OC(=O)[C@H](C)[C@@H](O[C@H]2C[C@@](C)(OC)[C@@H](OC(=O)NCCNC(=O)c3cc([N+](=O)[O-])cc([N+](=O)[O-])c3)[C@H](C)O2)[C@H](C)[C@@H](O[C@@H]2O[C@H](C)C[C@H](N(C)C)[C@H]2O)[C@](C)(O)C[C@@H](C)CN(C)[C@H](C)[C@@H](OC(=O)NCCc2ccccc2)[C@]1(C)O`, the MIC was 4 µg/mL (≈ 3.4 µM) with Staphylococcus aureus [1]; 0.06 µg/mL (≈ 0.051 µM) with Streptococcus pneumoniae [2]; 8 µg/mL (≈ 6.8 µM) with Streptococcus pyogenes [3]; 64 µg/mL (≈ 54.4 µM) against Streptococcus pyogenes [4]; 0.06 µg/mL (≈ 0.051 µM) against Streptococcus pneumoniae [5]; 2 µg/mL (≈ 1.7 µM) against Salmonella typhimurium [6]. Moreover, the minimum inhibitory concentration (MIC) in the assay on Salmonella typhimurium [7] came to 0.5 µg/mL (≈ 0.425 µM); in the assay with Staphylococcus aureus [8], 4 µg/mL (≈ 3.4 µM); in the assay on Staphylococcus aureus [9] it was 0.12 µg/mL (≈ 0.102 µM); against Streptococcus pneumoniae [10] it was 0.25 µg/mL (≈ 0.213 µM); in the assay with Streptococcus pneumoniae [11] it was 2 µg/mL (≈ 1.7 µM).
In the case of `CC[C@H]1OC(=O)[C@H](C)[C@@H](O[C@H]2C[C@@](C)(OC)[C@@H](OC(=O)NCCCCNC(=O)c3ccc(OC)cc3)[C@H](C)O2)[C@H](C)[C@@H](O[C@@H]2O[C@H](C)C[C@H](N(C)C)[C@H]2O)[C@](C)(O)C[C@@H](C)CN(C)[C@H](C)[C@@H](OC(=O)NCCc2ccccc2Cl)[C@]1(C)O`, the MIC with Staphylococcus aureus [1] was 4 µg/mL (≈ 3.39 µM); with Streptococcus pneumoniae [2] it was 0.5 µg/mL (≈ 0.424 µM); with Streptococcus pyogenes [3], 16 µg/mL (≈ 13.6 µM); in the assay on Streptococcus pyogenes [4] it was 64 µg/mL (≈ 54.3 µM); in the assay on Streptococcus pneumoniae [5], 0.06 µg/mL (≈ 0.0509 µM); against Salmonella typhimurium [6], 8 µg/mL (≈ 6.79 µM). In addition, the MIC with Salmonella typhimurium [7] is 2 µg/mL (≈ 1.7 µM); in the assay on Staphylococcus aureus [8] it was 1 µg/mL (≈ 0.848 µM); against Staphylococcus aureus [9], 0.5 µg/mL (≈ 0.424 µM); against Streptococcus pneumoniae [10], 2 µg/mL (≈ 1.7 µM); against Streptococcus pneumoniae [11] it was 8 µg/mL (≈ 6.79 µM).
Regarding `CC[C@H]1OC(=O)[C@H](C)[C@@H](O[C@H]2C[C@@](C)(OC)[C@@H](OC(=O)NCCCCNC(=O)c3ccc(OC)cc3)[C@H](C)O2)[C@H](C)[C@@H](O[C@@H]2O[C@H](C)C[C@H](N(C)C)[C@H]2O)[C@](C)(O)C[C@@H](C)CN(C)[C@H](C)[C@@H](OC(=O)NCc2ccc(OC)cc2)[C@]1(C)O`, the MIC came to 4 µg/mL (≈ 3.45 µM) against Staphylococcus aureus [1]; 0.5 µg/mL (≈ 0.431 µM) with Streptococcus pneumoniae [2]; 32 µg/mL (≈ 27.6 µM) in the assay with Streptococcus pyogenes [3]; 64 µg/mL (≈ 55.2 µM) with Streptococcus pyogenes [4]; 0.12 µg/mL (≈ 0.103 µM) against Streptococcus pneumoniae [5]; 2 µg/mL (≈ 1.72 µM) with Salmonella typhimurium [6]. Moreover, the MIC came out at 16 µg/mL (≈ 13.8 µM) with Salmonella typhimurium [7]; 4 µg/mL (≈ 3.45 µM) against Staphylococcus aureus [8]; 1 µg/mL (≈ 0.862 µM) against Staphylococcus aureus [9]; 2 µg/mL (≈ 1.72 µM) against Streptococcus pneumoniae [10]; 16 µg/mL (≈ 13.8 µM) in the assay on Streptococcus pneumoniae [11].
